Values joined by “and” are separate entries in the source; they are usually repeats but may differ in a detail not shown here. Identical values can stand only once.
Columns and labels:
MCP1/CCL2 secretion = MCP1/CCL2 secretion by primary human hepatocytes co-treated with sFA+TNF-α, ELISA after 24h; type: cell-based; design: Rx effect / Rx effect (MCP1): scale not given here; conditions: for Rx effect: MCP1; for MCP1 level / MCP1 secretion compared to baseline (sFA+TNF-α): Results 1, donors 1 and 2, AA compositions at 20X; for MCP1 level / MCP1 secretion level compared to the baseline (sFA+TNF-α): Results 2, donor 2
Description: Hepatocyte lipotoxicity appears to be a central driver of hepatic cellular injury via oxidative stress and endoplasmic reticulum (ER) stress. The ability of amino acids combined to therapeutics agents (Rx) to influence steatosis (lipid accumulation) and inflammation in hepatocytes was assessed using human primary hepatocytes purchased from two sources: Lonza and Sekisui Xenotech. Primary hepatocytes from two healthy human donor were seeded on day 0 at density of 60000 cells in 96 well optical microplates (Thermofisher) in hepatocyte plating media (William's E medium (Gibco) supplemented with 10% heat-inactivated FBS (Atlanta Bio), 2mM Glutamax (Gibco), and 0.2% Primocin (InVivoGen) and incubated for 6 hours at 37° C., 5% CO2. After 6 hours, cells were washed twice and incubated overnight at 37° C., 5% CO2 in hepatocytes plating media. On day 1, cells were washed twice and incubated for 24h in Hepatocytes defined medium (Corning) supplemented with 2mM Glutamax (Gibco), and 1x Penicillin/Streptomycin in the same conditions described above. On day 2, cells were washed twice with DPBS 1X (Gibco) and maintained in amino acid-free WEM (US Biologicals) containing a defined custom amino acid concentration based on the mean physiological concentrations in blood. The values are published in the Human Metabolome Database (Wishart DS, Tzur D, Knox C, et al., HMDB: the Human Metabolome Database. Nucleic Acids Res. 2007 Jan; 35(Database issue):[…]-6. 17202168; which is hereby incorporated by reference in its entirety). […] Cells were maintained in this defined pretreatment media for 24 hours at 37° C., 5% CO2. […] After 24 hours incubation, media was removed for chemokine analysis (MCP1) and the same co treatment was reapplied for an additional 48 hours for a total of 72 hours. Human CCL2 (MCP-1) was measured by ELISA (Human […] DuoSet ELISA, R&D Systems) at 1/20 dilution in 1X Reagent Diluent (Reagent Ancillary Kit 2, R&D Systems). Lipid was normalized to the specific per well cell density determined by nuclei count.

[1] = test system: human primary hepatocytes; assay: Intracellular lipid accumulation (steatosis) in primary human hepatocytes co-treated with sFA+TNF-α, LipidTOX fluorescence microscopy after 72h; type: cell-based; design: Rx effect (lipid): scale not given here; conditions: for Rx effect (Lipid: total lipid area subtracted from baseline sFA+TNFa, normalized to nuclei count): 72 h; for Rx effect (lipid): donor 2
Description: Hepatocyte lipotoxicity appears to be a central driver of hepatic cellular injury via oxidative stress and endoplasmic reticulum (ER) stress. The ability of amino acids combined to therapeutics agents (Rx) to influence steatosis (lipid accumulation) and inflammation in hepatocytes was assessed using human primary hepatocytes purchased from two sources: Lonza and Sekisui Xenotech. […] After 6 hours, cells were washed twice and incubated overnight at 37° C., 5% CO2 in hepatocytes plating media. On day 1, cells were washed twice and incubated for 24h in Hepatocytes defined medium (Corning) supplemented with 2mM Glutamax (Gibco), and 1x Penicillin/Streptomycin in the same conditions described above. […] The values are published in the Human Metabolome Database (Wishart DS, Tzur D, Knox C, et al., HMDB: the Human Metabolome Database. Nucleic Acids Res. 2007 Jan; 35(Database issue):[…]-6. 17202168; which is hereby incorporated by reference in its entirety). […] After 24 hours incubation, media was removed for chemokine analysis (MCP1) and the same co treatment was reapplied for an additional 48 hours for a total of 72 hours. After 72 hours, cells were washed twice with PBS 1x (Gibco), fixed with 4% Paraformaldehyde, and washed twice with PBS 1x (100 ul). […] The LipidTOXTM neutral lipid stain has an extremely high affinity for neutral lipid droplets that was detected by fluorescence microscopy using a high content imager (Molecular Devices). Lipid was normalized to the specific per well cell density determined by nuclei count.

[2] = Results 1, donors 1 and 2, AA compositions at 20X

## Cc1cc(F)c(C(=O)Nc2cccc(-c3nncn3C(C)C)n2)cc1-n1cnc(C2CC2)c1 [Selonsertib, 5-(4-cyclopropyl-1H-imidazol-1-yl)-2-fluoro-N-(6-(4-isopropyl-4H-1,2,4-triazol-3-yl)pyridin-2-yl)-4-methylbenzamide]
MCP1/CCL2 secretion; donor 1, Rx 0.063 µM
  Rx effect: -0.167
MCP1/CCL2 secretion; donor 1, Rx 1.000 µM
  Rx effect: -0.503
MCP1/CCL2 secretion; donor 1, Rx 4.000 µM
  Rx effect: -0.552
MCP1/CCL2 secretion; donor 2, Rx 0.063 µM
  Rx effect: -0.306
MCP1/CCL2 secretion; donor 2, Rx 1.000 µM
  Rx effect: -0.152
MCP1/CCL2 secretion; donor 2, Rx 4.000 µM
  Rx effect: -0.462
MCP1/CCL2 secretion
  MCP1 level / MCP1 secretion compared to baseline (sFA+TNF-α): slight reduction in MCP1 secretion
  MCP1 level / MCP1 secretion level compared to the baseline (sFA+TNF-α): no change or a slight reduction in MCP1 secretion level
MCP1/CCL2 secretion; donor 2, Rx 0.0625 µM
  Rx effect (MCP1): 0.004
MCP1/CCL2 secretion; donor 2, Rx 1 µM
  Rx effect (MCP1): -0.411
MCP1/CCL2 secretion; donor 2, Rx 4 µM
  Rx effect (MCP1): -0.463
[1]; Donor 1, Rx Conc. 0.063 µM
  Rx effect (Lipid: total lipid area subtracted from baseline sFA+TNFa, normalized to nuclei count): -0.060
[1]; Donor 1, Rx Conc. 1.000 µM
  Rx effect (Lipid: total lipid area subtracted from baseline sFA+TNFa, normalized to nuclei count): -0.154
[1]; Donor 1, Rx Conc. 4.000 µM
  Rx effect (Lipid: total lipid area subtracted from baseline sFA+TNFa, normalized to nuclei count): -0.152
[1]; Donor 2, Rx Conc. 0.063 µM
  Rx effect (Lipid: total lipid area subtracted from baseline sFA+TNFa, normalized to nuclei count): -0.096
[1]; Donor 2, Rx Conc. 1.000 µM
  Rx effect (Lipid: total lipid area subtracted from baseline sFA+TNFa, normalized to nuclei count): -0.164
[1]; Donor 2, Rx Conc. 4.000 µM
  Rx effect (Lipid: total lipid area subtracted from baseline sFA+TNFa, normalized to nuclei count): -0.307
[1]; [2]
  lipid level compared to baseline (sFA+TNFa): slight reduction in lipid level
[1]; Results 2, donor 2
  lipid level compared to baseline (sFA+TNFa): slight reduction in lipid level
[1]; Rx 0.0625 µM
  Rx effect (lipid): -0.024
[1]; Rx 1 µM
  Rx effect (lipid): -0.156
[1]; Rx 4 µM
  Rx effect (lipid): -0.178

## O=C(O)c1ccnc(N2CC(O)(c3ccc(OCc4c(-c5c(Cl)cccc5Cl)noc4C4CC4)cc3Cl)C2)c1 [Cilofexor, 2-(3-(2-chloro-4-((5-cyclopropyl-3-(2,6-dichlorophenyl)isoxazol-4-yl)methoxy)phenyl)-3-hydroxyazetidin-1-yl)isonicotinic acid]
MCP1/CCL2 secretion; donor 1, Rx 0.031 µM
  Rx effect: -0.009
MCP1/CCL2 secretion; donor 1, Rx 0.125 µM
  Rx effect: 0.582
MCP1/CCL2 secretion; donor 1, Rx 0.500 µM
  Rx effect: 1.210
MCP1/CCL2 secretion; donor 1, Rx 2.000 µM
  Rx effect: 1.898
MCP1/CCL2 secretion; donor 2, Rx 0.125 µM
  Rx effect: 0.28
  Rx effect (MCP1): 0.229
MCP1/CCL2 secretion; donor 2, Rx 0.500 µM
  Rx effect: 0.47
MCP1/CCL2 secretion; donor 2, Rx 2.000 µM
  Rx effect: 0.69 and 0.695
MCP1/CCL2 secretion
  MCP1 level / MCP1 secretion compared to baseline (sFA+TNF-α): slight increase
  MCP1 level / MCP1 secretion level compared to the baseline (sFA+TNF-α): no change or a slight increase in MCP1 secretion level
MCP1/CCL2 secretion; donor 2, Rx 0.0313 µM
  Rx effect (MCP1): -0.265
MCP1/CCL2 secretion; donor 2, Rx 0.5 µM
  Rx effect (MCP1): 0.525
MCP1/CCL2 secretion; donor 2, Rx 2 µM
  Rx effect (MCP1): 0.301
[1]; Donor 1, Rx Conc. 0.031 µM
  Rx effect (Lipid: total lipid area subtracted from baseline sFA+TNFa, normalized to nuclei count): 0.019
[1]; Donor 1, Rx Conc. 0.125 µM
  Rx effect (Lipid: total lipid area subtracted from baseline sFA+TNFa, normalized to nuclei count): 0.072
[1]; Donor 1, Rx Conc. 0.500 µM
  Rx effect (Lipid: total lipid area subtracted from baseline sFA+TNFa, normalized to nuclei count): 0.027
[1]; Donor 1, Rx Conc. 2.000 µM
  Rx effect (Lipid: total lipid area subtracted from baseline sFA+TNFa, normalized to nuclei count): 0.195
[1]; Donor 2, Rx Conc. 0.031 µM
  Rx effect (Lipid: total lipid area subtracted from baseline sFA+TNFa, normalized to nuclei count): -0.049
[1]; Donor 2, Rx Conc. 0.125 µM
  Rx effect (Lipid: total lipid area subtracted from baseline sFA+TNFa, normalized to nuclei count): 0.031
[1]; Donor 2, Rx Conc. 0.500 µM
  Rx effect (Lipid: total lipid area subtracted from baseline sFA+TNFa, normalized to nuclei count): 0.104
[1]; Donor 2, Rx Conc. 2.000 µM
  Rx effect (Lipid: total lipid area subtracted from baseline sFA+TNFa, normalized to nuclei count): 0.050
[1]; [2]
  lipid level compared to baseline (sFA+TNFa): no changes
[1]; Results 2, donor 2
  lipid level compared to baseline (sFA+TNFa): no changes in lipid level
[1]; Rx 0.0313 µM
  Rx effect (lipid): -0.110
[1]; Rx 0.125 µM
  Rx effect (lipid): 0.001
[1]; Rx 0.5 µM
  Rx effect (lipid): 0.088
[1]; Rx 2 µM
  Rx effect (lipid): 0.080

## O=C(O)c1cc(F)c2nc(N3C4CC[C@H]3C[C@H](OCc3c(-c5ccccc5OC(F)(F)F)noc3C3CC3)C4)sc2c1 [Tropifexor, 2-[(3-endo)-3-[[5-cyclopropyl-3-[2-(trifluoromethoxy)phenyl]-4-isoxazolyl]methoxy]-8-azabicyclo[3.2.1]oct-8-yl]-4-fluoro-6-benzothiazolecarboxylic acid]
MCP1/CCL2 secretion; donor 1, Rx 0.063 µM
  Rx effect: 0.956
MCP1/CCL2 secretion; donor 1, Rx 1.000 µM
  Rx effect: 0.877
MCP1/CCL2 secretion; donor 1, Rx 4.000 µM
  Rx effect: 0.658
MCP1/CCL2 secretion; donor 2, Rx 0.063 µM
  Rx effect: -0.16
MCP1/CCL2 secretion
  MCP1 level / MCP1 secretion compared to baseline (sFA+TNF-α): slight increase
[1]; Donor 1, Rx Conc. 0.063 µM
  Rx effect (Lipid: total lipid area subtracted from baseline sFA+TNFa, normalized to nuclei count): 0.169
[1]; Donor 1, Rx Conc. 1.000 µM
  Rx effect (Lipid: total lipid area subtracted from baseline sFA+TNFa, normalized to nuclei count): 0.185
[1]; Donor 1, Rx Conc. 4.000 µM
  Rx effect (Lipid: total lipid area subtracted from baseline sFA+TNFa, normalized to nuclei count): 0.214
[1]; Donor 2, Rx Conc. 0.063 µM
  Rx effect (Lipid: total lipid area subtracted from baseline sFA+TNFa, normalized to nuclei count): 0.132
[1]; Donor 2, Rx Conc. 1.000 µM
  Rx effect (Lipid: total lipid area subtracted from baseline sFA+TNFa, normalized to nuclei count): 0.083
[1]; Donor 2, Rx Conc. 4.000 µM
  Rx effect (Lipid: total lipid area subtracted from baseline sFA+TNFa, normalized to nuclei count): 0.049
[1]; [2]
  lipid level compared to baseline (sFA+TNFa): slight increase in lipid level

## COc1ccccc1[C@H](Cn1c(=O)n(C(C)(C)C(=O)O)c(=O)c2c(C)c(-c3ncco3)sc21)OC1CCOCC1 [Firsocostat, (R)-2-(1-(2-(2-methoxyphenyl)-2-((tetrahydro-2H-pyran-4-yl)oxy)ethyl)-5-methyl-6-(oxazol-2-yl)-2,4-dioxo-1,4-dihydrothieno[2,3-d]pyrimidin-3(2H)-yl)-2-methylpropanoic acid]
MCP1/CCL2 secretion; donor 1, Rx 0.063 µM
  Rx effect: -0.233
MCP1/CCL2 secretion; donor 1, Rx 1.000 µM
  Rx effect: -0.827
MCP1/CCL2 secretion; donor 1, Rx 4.000 µM
  Rx effect: -0.479
MCP1/CCL2 secretion; donor 2, Rx 0.063 µM
  Rx effect: -0.319
MCP1/CCL2 secretion; donor 2, Rx 1.000 µM
  Rx effect: -0.614
MCP1/CCL2 secretion; donor 2, Rx 4.000 µM
  Rx effect: -0.775
MCP1/CCL2 secretion
  MCP1 level / MCP1 secretion compared to baseline (sFA+TNF-α): slight reduction in MCP1 secretion
  MCP1 level / MCP1 secretion level compared to the baseline (sFA+TNF-α): no change or a slight reduction in MCP1 secretion level
MCP1/CCL2 secretion; donor 2, Rx 0.0625 µM
  Rx effect (MCP1): -0.147
MCP1/CCL2 secretion; donor 2, Rx 1 µM
  Rx effect (MCP1): -0.682
MCP1/CCL2 secretion; donor 2, Rx 4 µM
  Rx effect (MCP1): -0.510
[1]; Donor 1, Rx Conc. 0.063 µM
  Rx effect (Lipid: total lipid area subtracted from baseline sFA+TNFa, normalized to nuclei count): -0.210
[1]; Donor 1, Rx Conc. 1.000 µM
  Rx effect (Lipid: total lipid area subtracted from baseline sFA+TNFa, normalized to nuclei count): -0.412
[1]; Donor 1, Rx Conc. 4.000 µM
  Rx effect (Lipid: total lipid area subtracted from baseline sFA+TNFa, normalized to nuclei count): -0.317
[1]; Donor 2, Rx Conc. 0.063 µM
  Rx effect (Lipid: total lipid area subtracted from baseline sFA+TNFa, normalized to nuclei count): -0.246
[1]; Donor 2, Rx Conc. 1.000 µM
  Rx effect (Lipid: total lipid area subtracted from baseline sFA+TNFa, normalized to nuclei count): -0.449
[1]; Donor 2, Rx Conc. 4.000 µM
  Rx effect (Lipid: total lipid area subtracted from baseline sFA+TNFa, normalized to nuclei count): -0.485
[1]; [2]
  lipid level compared to baseline (sFA+TNFa): slight reduction in lipid level
[1]; Results 2, donor 2
  lipid level compared to baseline (sFA+TNFa): slight reduction in lipid level
[1]; Rx 0.0625 µM
  Rx effect (lipid): -0.147
[1]; Rx 1 µM
  Rx effect (lipid): -0.404
[1]; Rx 4 µM
  Rx effect (lipid): -0.458

Source: US20230105984A1, “COMPOSITIONS AND METHODS FOR THE TREATMENT OF LIVER DISEASES AND DISORDERS” (AXCELLA HEALTH INC., priority 2019, published 2023)
